Test results from PubChem BioAssay (NCI).
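1) Cells in 96-well plates. 2) Compound, 48 h, 5 concentrations. 3) Linear interpolation between surrounding doses. 4) Unreached endpoint = highest concentration. GI50 is the concentration that inhibits growth by half. At the TGI there is no net growth.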

Key:
Experiment in all cases: NCI tumour cell line growth inhibition, 48 h
HL-60(TB) leukemia = test system: HL-60(TB) leukemia
A549 NSCLC = test system: A549 NSCLC
SK-MEL-5 melanoma = test system: SK-MEL-5 melanoma
OVCAR-5 ovarian = test system: OVCAR-5 ovarian
SK-OV-3 ovarian = test system: SK-OV-3 ovarian
RXF 393 renal = test system: RXF 393 renal
UACC-257 melanoma = test system: UACC-257 melanoma
NCI-H226 lung = test system: NCI-H226 lung
OVCAR-8 ovarian = test system: OVCAR-8 ovarian
BT-549 breast = test system: BT-549 breast
SK-MEL-2 melanoma = test system: SK-MEL-2 melanoma
UO-31 renal = test system: UO-31 renal
CCRF-CEM leukemia = test system: CCRF-CEM leukemia
DU-145 prostate = test system: DU-145 prostate
NCI-H522 lung = test system: NCI-H522 lung
CAKI-1 renal = test system: CAKI-1 renal
OVCAR-4 ovarian = test system: OVCAR-4 ovarian
LOX IMVI melanoma = test system: LOX IMVI melanoma
SNB-19 CNS = test system: SNB-19 CNS
SK-MEL-28 melanoma = test system: SK-MEL-28 melanoma
MCF7 breast = test system: MCF7 breast
HOP-92 NSCLC = test system: HOP-92 NSCLC
HOP-62 NSCLC = test system: HOP-62 NSCLC
SF-539 CNS = test system: SF-539 CNS
MALME-3M melanoma = test system: MALME-3M melanoma
OVCAR-3 ovarian = test system: OVCAR-3 ovarian
PC-3 prostate = test system: PC-3 prostate
TK-10 renal = test system: TK-10 renal
T-47D breast = test system: T-47D breast
SW-620 colon = test system: SW-620 colon
NCI-H23 lung = test system: NCI-H23 lung
HCT-116 colon = test system: HCT-116 colon
U251 CNS = test system: U251 CNS
A498 renal = test system: A498 renal
SF-268 CNS = test system: SF-268 CNS
UACC-62 melanoma = test system: UACC-62 melanoma
SNB-75 CNS = test system: SNB-75 CNS
HS 578T breast = test system: HS 578T breast
NCI/ADR-RES ovarian = test system: NCI/ADR-RES ovarian
MDA-MB-231 breast = test system: MDA-MB-231 breast
SF-295 CNS = test system: SF-295 CNS
EKVX NSCLC = test system: EKVX NSCLC
K-562 leukemia = test system: K-562 leukemia
NCI-H460 lung = test system: NCI-H460 lung
HCT-15 colon = test system: HCT-15 colon
ACHN renal = test system: ACHN renal
IGROV1 ovarian = test system: IGROV1 ovarian
HCC-2998 colon = test system: HCC-2998 colon
KM12 colon = test system: KM12 colon
MOLT-4 leukemia = test system: MOLT-4 leukemia
786-0 renal = test system: 786-0 renal
RPMI-8226 leukemia = test system: RPMI-8226 leukemia
COLO 205 colon = test system: COLO 205 colon
SN12C renal = test system: SN12C renal
HT29 colon = test system: HT29 colon
M14 melanoma = test system: M14 melanoma

How did the GI50 (HL-60(TB) leukemia) turn out when O=C(Oc1cccnc1)c1ccccc1Nc1ccnc(C(F)(F)F)c1 was run?
The GI50 was 43.3 µM.

And the TGI (HL-60(TB) leukemia)?
The TGI was greater than 100 µM.

What about the GI50 (A549 NSCLC) of the same compound?
The GI50 was 589 nM.

And the TGI (A549 NSCLC)?
The TGI was greater than 100 µM.

What about the GI50 (SK-MEL-5 melanoma) of the same compound?
The GI50 was 203 nM.

What about the TGI (SK-MEL-5 melanoma) of the same compound?
The TGI was 2350 nM.

What about the GI50 (OVCAR-5 ovarian) of the same compound?
The GI50 was 630 nM.

And the TGI (OVCAR-5 ovarian)?
The TGI was greater than 95.9 µM.

What about the GI50 (SK-OV-3 ovarian) of the same compound?
The GI50 was 250 nM.

What about the TGI (SK-OV-3 ovarian) of the same compound?
The TGI was greater than 100 µM.

What about the GI50 (RXF 393 renal) of the same compound?
Its GI50 is 473 nM.

And the TGI (RXF 393 renal)?
The TGI was 13.5 µM.

What about the GI50 (UACC-257 melanoma) of the same compound?
Its GI50 is 35.7 µM.

And the TGI (UACC-257 melanoma)?
The TGI was greater than 100 µM.

What about the GI50 (NCI-H226 lung) of the same compound?
Its GI50 is 552 nM.

And the TGI (NCI-H226 lung)?
Its TGI is 29.3 µM.

And the GI50 (OVCAR-8 ovarian)?
The GI50 was 413 nM.

What about the TGI (OVCAR-8 ovarian) of the same compound?
Its TGI is greater than 100 µM.

What about the GI50 (BT-549 breast) of the same compound?
The GI50 was 104 nM.

What about the TGI (BT-549 breast) of the same compound?
The TGI was 2180 nM.

What about the GI50 (SK-MEL-2 melanoma) of the same compound?
The GI50 was 20.2 µM.

What about the TGI (SK-MEL-2 melanoma) of the same compound?
Its TGI is greater than 100 µM.

And the GI50 (UO-31 renal)?
The GI50 was 3.84 µM.

And the TGI (UO-31 renal)?
The TGI was greater than 87.3 µM.

What about the GI50 (CCRF-CEM leukemia) of the same compound?
Its GI50 is 33.4 nM.

What about the TGI (CCRF-CEM leukemia) of the same compound?
Its TGI is greater than 100 µM.

What about the GI50 (DU-145 prostate) of the same compound?
Its GI50 is 273 nM.

What about the TGI (DU-145 prostate) of the same compound?
Its TGI is 3.17 µM.

What about the GI50 (NCI-H522 lung) of the same compound?
The GI50 was 402 nM.

And the TGI (NCI-H522 lung)?
The TGI was greater than 100 µM.

What about the GI50 (CAKI-1 renal) of the same compound?
Its GI50 is 52.5 nM.

What about the TGI (CAKI-1 renal) of the same compound?
The TGI was 46.9 µM.

And the GI50 (OVCAR-4 ovarian)?
The GI50 was 207 nM.

What about the TGI (OVCAR-4 ovarian) of the same compound?
Its TGI is greater than 100 µM.

What about the GI50 (LOX IMVI melanoma) of the same compound?
The GI50 was 40.6 nM.

And the TGI (LOX IMVI melanoma)?
The TGI was greater than 37.8 µM.

And the GI50 (SNB-19 CNS)?
The GI50 was 540 nM.

What about the TGI (SNB-19 CNS) of the same compound?
The TGI was greater than 100 µM.

And the GI50 (SK-MEL-28 melanoma)?
Its GI50 is 483 nM.

What about the TGI (SK-MEL-28 melanoma) of the same compound?
The TGI was greater than 60.1 µM.

What about the GI50 (MCF7 breast) of the same compound?
The GI50 was 86.5 nM.

And the TGI (MCF7 breast)?
Its TGI is greater than 45.5 µM.

And the GI50 (HOP-92 NSCLC)?
The GI50 was 6.64 µM.

And the TGI (HOP-92 NSCLC)?
Its TGI is greater than 100 µM.

And the GI50 (HOP-62 NSCLC)?
The GI50 was 47.3 nM.

And the TGI (HOP-62 NSCLC)?
The TGI was 214 nM.

What about the GI50 (SF-539 CNS) of the same compound?
The GI50 was 42.8 nM.

And the TGI (SF-539 CNS)?
Its TGI is greater than 100 µM.

What about the GI50 (MALME-3M melanoma) of the same compound?
Its GI50 is 33.1 µM.

And the TGI (MALME-3M melanoma)?
Its TGI is greater than 100 µM.

What about the GI50 (OVCAR-3 ovarian) of the same compound?
The GI50 was 141 nM.

What about the TGI (OVCAR-3 ovarian) of the same compound?
Its TGI is 453 nM.

And the GI50 (PC-3 prostate)?
Its GI50 is 449 nM.

And the TGI (PC-3 prostate)?
Its TGI is greater than 100 µM.

What about the GI50 (TK-10 renal) of the same compound?
Its GI50 is 369 nM.

And the TGI (TK-10 renal)?
The TGI was 31.8 µM.

What about the GI50 (T-47D breast) of the same compound?
Its GI50 is 23 µM.

And the TGI (T-47D breast)?
The TGI was 51.5 µM.

What about the GI50 (SW-620 colon) of the same compound?
The GI50 was 49.8 nM.

What about the TGI (SW-620 colon) of the same compound?
Its TGI is greater than 100 µM.

What about the GI50 (NCI-H23 lung) of the same compound?
Its GI50 is 49 nM.

And the TGI (NCI-H23 lung)?
Its TGI is 1830 nM.

What about the GI50 (HCT-116 colon) of the same compound?
Its GI50 is 34.2 nM.

What about the GI50 (U251 CNS) of the same compound?
The GI50 was 330 nM.

And the TGI (U251 CNS)?
Its TGI is greater than 96.2 µM.

What about the GI50 (A498 renal) of the same compound?
The GI50 was 2480 nM.

What about the TGI (A498 renal) of the same compound?
The TGI was 13.1 µM.

And the GI50 (SF-268 CNS)?
The GI50 was 333 nM.

What about the TGI (SF-268 CNS) of the same compound?
The TGI was 14.4 µM.

What about the GI50 (UACC-62 melanoma) of the same compound?
Its GI50 is 313 nM.

What about the TGI (UACC-62 melanoma) of the same compound?
Its TGI is greater than 64.6 µM.

What about the GI50 (SNB-75 CNS) of the same compound?
The GI50 was greater than 63.4 µM.

And the TGI (SNB-75 CNS)?
Its TGI is greater than 100 µM.

What about the GI50 (HS 578T breast) of the same compound?
Its GI50 is 4.13 µM.

What about the TGI (HS 578T breast) of the same compound?
Its TGI is greater than 100 µM.

And the GI50 (NCI/ADR-RES ovarian)?
The GI50 was 186 nM.

What about the TGI (NCI/ADR-RES ovarian) of the same compound?
The TGI was greater than 100 µM.

What about the GI50 (MDA-MB-231 breast) of the same compound?
Its GI50 is 233 nM.

What about the TGI (MDA-MB-231 breast) of the same compound?
Its TGI is greater than 62.2 µM.

And the GI50 (SF-295 CNS)?
The GI50 was 257 nM.

What about the TGI (SF-295 CNS) of the same compound?
The TGI was 707 nM.

And the GI50 (EKVX NSCLC)?
Its GI50 is 6.15 µM.

And the TGI (EKVX NSCLC)?
The TGI was 46.4 µM.

What about the GI50 (K-562 leukemia) of the same compound?
Its GI50 is 42.6 nM.

What about the TGI (K-562 leukemia) of the same compound?
Its TGI is greater than 100 µM.

What about the GI50 (NCI-H460 lung) of the same compound?
The GI50 was 342 nM.

What about the TGI (NCI-H460 lung) of the same compound?
The TGI was greater than 35 µM.

And the GI50 (HCT-15 colon)?
The GI50 was 121 nM.

And the TGI (HCT-15 colon)?
The TGI was greater than 100 µM.

And the GI50 (ACHN renal)?
The GI50 was 353 nM.

And the TGI (ACHN renal)?
Its TGI is greater than 74.6 µM.

And the GI50 (IGROV1 ovarian)?
Its GI50 is 21.7 µM.

What about the TGI (IGROV1 ovarian) of the same compound?
Its TGI is greater than 100 µM.

What about the GI50 (HCC-2998 colon) of the same compound?
The GI50 was 363 nM.

What about the TGI (HCC-2998 colon) of the same compound?
The TGI was 15.1 µM.

And the GI50 (KM12 colon)?
Its GI50 is 169 nM.

And the TGI (KM12 colon)?
The TGI was 2720 nM.

What about the GI50 (MOLT-4 leukemia) of the same compound?
Its GI50 is 49.9 nM.

And the TGI (MOLT-4 leukemia)?
The TGI was greater than 100 µM.

And the GI50 (786-0 renal)?
The GI50 was 158 nM.

What about the TGI (786-0 renal) of the same compound?
Its TGI is 4.64 µM.

What about the GI50 (RPMI-8226 leukemia) of the same compound?
Its GI50 is 56.3 nM.

And the TGI (RPMI-8226 leukemia)?
The TGI was 7.22 µM.

What about the GI50 (COLO 205 colon) of the same compound?
Its GI50 is 156 nM.

And the TGI (COLO 205 colon)?
The TGI was 363 nM.

What about the GI50 (SN12C renal) of the same compound?
Its GI50 is 170 nM.

What about the TGI (SN12C renal) of the same compound?
The TGI was greater than 94.8 µM.

And the GI50 (HT29 colon)?
Its GI50 is 48.7 nM.

And the GI50 (M14 melanoma)?
The GI50 was 53.6 nM.

What about the TGI (M14 melanoma) of the same compound?
Its TGI is 3.11 µM.
